Measurements published in patent US20200140446A1, “5,8-DIMETHYL-2-[2-(1-METHYL-4-PHENYL-1H-IMIDAZOL-2-YL)-ETHYL]-[1,2,4]TRIAZOLO[1,5-A]PYRAZINE HEMIADIPATE” (H. Lundbeck A/S, priority 2018, published 2020).
Marks after values point to notes of the source that are not given here.

Tests used:
[1] = Dynamic Vapour Sorption (DVS), hygroscopicity; type: physicochemical; settings: for Hygroscopic (Yes/No): summary of solid forms of Compound (I), Table 2; for hygroscopicity (DVS conclusion): RH 0% to 95%, 25° C.
Source text: The vapour sorption can be investigated by DVS analysis.
The vapour sorption was investigated by DVS analysis.

[2] = Hydrate formation (precipitation from water / storage at 95% RH, XRPD); type: physicochemical; settings: for Hydrate formation (Yes/No): summary of solid forms of Compound (I), Table 2
Source text: To determine whether the Compound (I) hemiadipate are prone to form hydrates it was investigated if precipitation from water equilibrated over 7 days led to a new crystal form. In addition, it was explored if storage of Compound (I) hemiadipate at 95% RH for 5 months led to change in the crystal form.

[3] = Intrinsic Dissolution Rate (IDR); type: physicochemical; settings: 37° C., 10 mg tablet, duplicates
Procedure: Tablets of 10 mg Compound (I) (free base or hemiadipate) were pressed and put into a micro dissolution chamber. It was subsequently measured how fast the substance was dissolved from the well-defined surface of the tablet into the solvent. The length of a full dissolution experiment was 20 min and the IDR was calculated in the range 1-2.5 min, determined as the slope of the dissolution profile in that specific range. The experiment at pH 2 was performed in 0.01 N HCl, at pH 5 in 50 mM acetate buffer and at pH 6.8 in 50 mM phosphate buffer, respectively, all at 37° C. All experiments were performed in duplicates.
Where the tablet was not fully dissolved after end of experiment, the surface was examined by XRPD, to identify if any changes of solid form have occurred during the experiment.

[4] = Solvate formation (shake-flask precipitation in organic solvents, XRPD); type: physicochemical; settings: 16 organic solvents, equilibration for 4 days
Source text: To determine whether the Compound (I) hemiadipate forms solvates it was investigated if solvate formation could be observed from precipitation in different organic solvents after equilibration for 4 days in the shake-flask method: Compound (I) hemiadipate was precipitated in various organic solvents from a 1:1 mixture of Compound (I) and adipic acid. The tested solvents were: acetone, acetonitrile, methanol, ethanol, 1-propanol, 2-propanol, 1-butanol, 2-butanol, ethyl acetate, isopropyl acetate, methyl isobutyl ketone, tetrahydrofuran, diethylether, N-methylpyrrolidone, dichloromethane, and n-heptane.

rats = experiment: Conditioned Avoidance Response (CAR) in rats, high dopamine state; type: in vivo
Source text: The inventors of the present invention put forward the hypothesis that many patients with exacerbated positive symptoms can be expected to have increased striatal dopamine levels. Since the dopamine receptors regulate the dopamine signal by controlling cAMP synthesis and PDE10A regulates the gain of this signal by controlling cAMP degradation, the effect of PDE10A inhibition might be altered in conditions with increased striatal dopamine tonus, such as found in patients with prominent positive symptoms. To investigate this further the effect of compounds of the invention were tested in the CAR assay in rats that were co-dosed with a low dose of d-amphetamine (0.20-0.25 mg/kg) to induce a high dopamine state (FIG. 4). […] Compound (I) was tested alone and in combination with a low dose d-amphetamine to induce a high dopamine state. The efficacy was measured as the mean number of avoidances and results are depicted as mean+/−SEM. […] Bars represent the following dose groups (left to right): 1) Vehicle; 2) d-amphetamine (0.2 mg/kg); 3) Compound (I) (0.6 mg/kg); 4) Compound (I) (0.3 mg/kg)+d-amphetamine (0.2 mg/kg); 5) Compound (I) (0.6 mg/kg)+d-amphetamine (0.2 mg/kg); and 6) Compound (I) (3.0 mg/kg)+d-amphetamine (0.2 mg/kg). ** p<0.01 compared to vehicle. ns=non-significant.

Molecule	Hygroscopic (Yes/No) [1]	Hydrate formation (Yes/No) [2]	other results
O=C(O)CCC(=O)C(=O)O [2-oxoglutarate]	Yes	Yes	–
Cc1ncc(C)n2nc(CCc3nc(-c4ccccc4)cn3C)nc12 [Compound (I) hemiadipate, 5,8-Dimethyl-2-[2-(1-methyl-4-phenyl-1H-imidazol-2-yl)-ethyl]-[1,2,4]triazolo[1,5-a]pyrazine hemiadipate]	No	No	vapour sorption ([1]; DVS, 95% RH at 25° C.): less than 0.1%; hygroscopicity (DVS conclusion) ([1]; DVS): non-hygroscopic; change of crystal form after storage at 95% RH ([2]; 95% RH for 5 months, XRPD): had not changed from the original form; change of crystal form after precipitation from water ([2]; water, equilibrated over 7 days, XRPD): had not changed from the original form; IDR Average ([3]; pH 2, 0.01 N HCl): >2* mg/cm^2 × min; IDR Average ([3]; pH 5, 50 mM acetate buffer): 0.3 mg/cm^2 × min; IDR Average ([3]; pH 6.8, 50 mM phosphate buffer): 0.04 mg/cm^2 × min; solvate formation [4]: does not form solvates
Cc1ncc(C)n2nc(CCc3nc(-c4ccccc4)cn3C)nc12 [Compound (I), 5,8-Dimethyl-2-[2-(1-methyl-4-phenyl-1H-imidazol-2-yl)-ethyl]-[1,2,4]triazolo[1,5-a]pyrazine]	–	–	hygroscopicity (DVS conclusion) ([1]; DVS, listed as free base): very hygroscopic; Hygroscopic (Yes/No) ([1]; listed as Free base): Yes; Hydrate formation (Yes/No) ([2]; listed as Free base): Yes; IDR Average ([3]; pH 2, 0.01 N HCl, listed as Compound (I) free base): 1.45 mg/cm^2 × min; IDR Average ([3]; pH 5, 50 mM acetate buffer, listed as Compound (I) free base): 0.101 mg/cm^2 × min; IDR Average ([3]; pH 6.8, 50 mM phosphate buffer, listed as Compound (I) free base): 0.025 mg/cm^2 × min; effect on CAR (mean number of avoidances), combined with d-amphetamine (rats; Compound (I) 0.3, 0.6, 3.0 mg/kg + d-amphetamine 0.2 mg/kg (high dopamine state)): this effect was abolished; effect on CAR (mean number of avoidances), dosed alone (rats; Compound (I) alone (0.6 mg/kg), ** p<0.01 compared to vehicle): reduced CAR
Cc1ncc(C)n2nc(CCc3nc(-c4ccccc4)cn3C)nc12.O=C[C@H](O)[C@@H](O)[C@H](O)[C@H](O)C(=O)O [D-glucoronate]	Yes	Yes	–
O=P(O)(O)O [Dihydrogen Phosphate]	–	Yes	–
Br.Cc1ncc(C)n2nc(CCc3nc(-c4ccccc4)cn3C)nc12 [Hydrogen Bromide]	Yes	Yes	–
Cl [Hydrogen Chloride]	Yes	Yes	–
Cc1ncc(C)n2nc(CCc3nc(-c4ccccc4)cn3C)nc12.O=S(=O)(O)O [Hydrogen sulphate]	–	Yes	–
Citrate	Yes	Yes	–
Fumarate	–	Yes	–
Glutarate	–	Yes	–
L(+)-tartrate	–	Yes	–
L(−)-malate	Yes	Yes	–
Maleate	Yes	Yes	–
Malonate	Yes	Yes	–
Oxalate	Yes	Yes	–
Tosylate	Yes	Yes	–
